Patent US20260174823A1 (The Children's Medical Center Corporation, priority 2022, published 2026)
“Also recorded” adds a separate entry of the source.

Assays:
[1] = test system: endometriosis lesions; experiment: endometriosis lesion size measured with calipers in mouse model; format: in vivo
[2] = test system: murine model for endometriosis pain; experiment: endometriosis-associated pain overall (von Frey plus spontaneous pain behaviors) in mouse model; format: in vivo; settings: vs vehicle
Experimental: (§1) After at least one week of acclimatization, donor mice received a subcutaneous injection of 3 μg/mouse estradiol benzoate to stimulate the growth of the endometrium. Seven days later, the uteri of the donor mice were dissected into a Petri dish containing HBSS and split longitudinally with a pair of scissors. Uterine horns from each donor mouse were minced with scissors and scalpel one at the time, ensuring that the maximal diameter of each fragment was consistently smaller than 1 millimeter (mm). Each dissociated uterine horn was then injected intraperitoneally using an 18 G needle into a recipient mouse in 500 μL of HBSS. One donor mouse was used for every two endometriosis mice.
(§2) For mechanical and heat hyperalgesia tests, mice were allowed to habituate to the apparatus for at least 2 hours and during three consecutive days before the beginning of measurements. […] Pain intensity to a mechanical stimulus (mechanical hyperalgesia) in the abdominal region was measured using von Frey filaments. […] The mechanical threshold was determined by the up and down method starting with 0.4 g filament and calculated using the open-source software Up-Down Reader.
For spontaneous abdominal pain measurements, stretching the abdomen (abdominal contortions) and squashing of the lower abdomen against the floor were quantified. […]

[3] = test system: murine model for endometriosis pain; experiment: von Frey testing of abdominal mechanical pain in non-surgical mouse model of endometriosis; format: in vivo
Experimental: as §1, §2
It was therefore tested whether Rimegepant is effective at reducing pain in a murine model (FIG. 1A). […] Lesion size was calculated from the mean of two measurements (width and height in mm). […]

[4] = test system: murine model for endometriosis pain; experiment: spontaneous pain quantification (abdominal squashing and contortions) in mouse model of endometriosis; format: in vivo
Experimental: as §1
For spontaneous abdominal pain measurements, stretching the abdomen (abdominal contortions) and squashing of the lower abdomen against the floor were quantified. Briefly, for the abdominal contortions, mice were placed in individual chambers in a temperature-controlled (29° C.) glass plate and the number of abdominal contortions was quantified for 10 minutes.
Positive responses consist of a contraction of the abdominal muscle together with stretching of hind limbs. For abdominal squashing, the number of times the mice pressed the lower abdominal region against the floor in five minutes was quantified.
It was therefore tested whether Rimegepant is effective at reducing pain in a murine model (FIG. 1A). Endometriosis lesions were induced in 40 mice and at day 29 post-induction, mice were randomly assigned to treatment with vehicle or Rimegepant at 3, 10, or 30 mg/kg (n=10 mice per group). Treatment was performed daily by oral gavage. Mechanical abdominal pain was determined weekly, 7 to 42 days post implantation (dpi) using von Frey filaments, while abdominal squashing and contortions were determined by counting these pain behaviors. Lesion size was calculated from the mean of two measurements (width and height in mm). […]

[5] = test system: mouse endometrial epithelial cells (mEECs); experiment: mEEC proliferation assay in transwell co-culture with peritoneal macrophages (CyQuant); format: cell-based; settings: Rimegepant 100 nM 30 minutes before CGRP 100 nM for 24 hours
Experimental: (§3) Peritoneal cells were collected in FACS buffer from the abdominal cavity of naïve mice. Peritoneal cavity immune cells were seeded in petri dishes in RPMI media and incubated at 37° C. in 5% CO2 for 60 minutes. Non-adherent cells were discarded, and adherent cells (macrophages) were scraped, centrifuged, and counted.
For experiments involving mouse epithelial endometrial cell (mEEC) proliferation, macrophages were plated (100,000 cells per well) onto tissue culture insert and left overnight with 20,000 mEEC plated on the bottom of the well. Stimulus with CGRP (100 nM) or vehicle was performed for 24 hours and then mEEC were used to determine for cell proliferation assay using CyQuant™ kit (Thermo Fisher Scientific #C7026). Treatment with Rimegepant (100 nM) or vehicle was performed 30 minutes before stimulus with CGRP.
In this experiment, peritoneal macrophages were plated on a cell culture insert and co-cultured with a mouse epithelial endometrial cell line (mEEC) in a 24-well plate. Cell growth was assessed using the CyQuant™ kit and quantification performed in a spectrophotometer (n=8 well per group).
Macrophages were plated onto tissue culture insert with mEEC plated on the bottom of the well. […] Results shown are expressed as mean±SEM, n=5−12 (one-way ANOVA followed by Tukey's post hoc or Student's t-test, ****P<0.0001, p<0.001, **p<0.02, *p<0.05).

[6] = test system: peritoneal macrophages; experiment: efferocytosis assay: peritoneal macrophages with apoptotic 12z-eGFP cells; format: cell-based, mouse; settings: Rimegepant 100 nM 30 minutes before CGRP 100 nM for 24 hours; apoptotic 12z-eGFP added for 1 hour
Experimental: as §3
For the efferocytosis assay, macrophages (200,000 cells per well) were plated overnight onto a 96-well plate. Stimulus with CGRP (100 nM) or vehicle was performed for 24 hours. After that, etoposide-induced apoptotic 12z-eGFP were added (600,000 cells per well) to the macrophage culture and incubated for 1 hour. Cells were washed 3 times with DPBS to remove non-engulfed 12z-eGFP and then and fluorescence intensity determined. Treatment with Rimegepant (100 nM) or vehicle was performed 30 minutes before stimulus with CGRP. […]
For the efferocytosis assay, macrophages were plated overnight onto a 96-well plate and stimulus with CGRP (100 nM) or vehicle was performed for 24 h. […] Cells were washed 3 times with DPBS to remove non-engulfed 12z-eGFP and then and fluorescence intensity determined. […] Results shown are expressed as mean±SEM, n=5−12 (one-way ANOVA followed by Tukey's post hoc or Student's t-test, ****P<0.0001, p<0.001, **p<0.02, *p<0.05).

[7] = cited from earlier work
[8] = test system: murine model for endometriosis pain; experiment: endometriosis-associated pain overall (von Frey plus spontaneous pain behaviors) in mouse model; format: in vivo; settings: 29 to 56 dpi, vs vehicle
[9] = nociceptor ablation in RTX-treated lesion-bearing mice
[10] = Rimegepant 3, 10 or 30 mg/kg daily by oral gavage, 29 to 42 dpi, vs vehicle

With CC[N+](CC)(CC)CC(=O)Nc1c(C)cccc1C [QX-314] the lesion size ([1]; QX-314 0.1 or 1 mg/kg daily i.p., 29 to 35 dpi, vs vehicle) was “reduced lesion size; also recorded: reduces” and the endometriosis-associated pain ([2]; QX-314 0.1 or 1 mg/kg daily i.p., 29 to 35 dpi) was “reduced endometriosis-associated pain; also recorded: reduces”.

With C=C(C)[C@]12C[C@@H](C)[C@@]34O[C@](Cc5ccccc5)(O[C@@H]1[C@@H]3C=C(COC(=O)Cc1ccc(O)c(OC)c1)C[C@]1(O)C(=O)C(C)=C[C@@H]41)O2 [RTX, resiniferatoxin toxin] the lesion size [1, 9] was “reduced”, the evoked pain [3, 9] was “reduced” and the spontaneous pain behaviors [4, 9] was “reduced”.

In the case of N[C@@H]1c2cccnc2[C@H](OC(=O)N2CCC(n3c(=O)[nH]c4ncccc43)CC2)CC[C@H]1c1cccc(F)c1F [Rimegepant], the lesion size [1, 10] is reported as “reduced lesion size; also recorded: reduces”, the “growth (proliferation) of mEEC promoted by CGRP-stimulated macrophages” value [5] is reported as “inhibited; also recorded: reduces mEEC proliferation” and the “efferocytosis activity of CGRP-stimulated macrophages (eGFP fluorescence intensity)” value [6] is reported as “rescued; also recorded: restores normal levels of efferocytosis”. The “preclinical safety profile upon chronic treatment” value ([7]; chronic treatment (26 weeks)) was “safe preclinical profile”, the “adverse effects on fertility” value ([7]; doses as high as 60 mg/kg) was “no adverse effects on fertility” and the “abdominal mechanical threshold to the von Frey fibers” value [3, 10] was “increased”. For the same molecule, the endometriosis-associated pain ([2]; Rimegepant 3, 10 or 30 mg/kg daily by oral gavage, 29 to 42 dpi) was “reduces endometriosis-associated pain”, the “number of abdominal contortion” value [4, 10] was “reduced” and the “number of abdominal squashing” value [4, 10] was “reduced”.

In the case of C[C@@H]1[C@H](c2ccccc2)C[C@H](NC(=O)c2cnc3c(c2)C[C@@]2(C3)C(=O)Nc3ncccc32)C(=O)N1CC(F)(F)F [Ubrogepant], the lesion size ([1]; Ubrogepant 50 mg/kg daily per oral gavage, 29 to 56 dpi, vs vehicle) is reported as “significantly smaller”, the lesion size ([1]; Ubrogepant 50 mg/kg daily per oral gavage, 29 to 56 dpi, vs vehicle, listed as Ubrogevant) is reported as “reduce” and the endometriosis-associated pain ([8]; Ubrogepant 50 mg/kg daily per oral gavage) is reported as “significant reduction”. The endometriosis-associated pain ([8]; Ubrogepant 50 mg/kg daily per oral gavage, listed as Ubrogevant) was “reduce”.

B1: Fremanezumab (antibody, chains of the INN, looked up, V domains shown)
VH: EVQLVESGGGLVQPGGSLRLSCAASGFTFSNYWISWVRQAPGKGLEWVAEIRSESDASATHYAEAVKGRFTISRDNAKNSLYLQMNSLRAEDTAVYYCLAYFDYGLAIQNYWGQGTLVTVSS
VL: EIVLTQSPATLSLSPGERATLSCKASKRVTTYVSWYQQKPGQAPRLLIYGASNRYLGIPARFSGSGSGTDFTLTISSLEPEDFAVYYCSQSYNYPYTFGQGTKLEIK
notes: a monoclonal antibody antagonist of CGRP
In the case of B1, the lesion size ([1]; Fremanezumab 100 mg/kg subcutaneous injection, 29 to 56 dpi, vs vehicle) is reported as “significantly smaller; also recorded: reduce” and the endometriosis-associated pain ([8]; Fremanezumab 100 mg/kg subcutaneous injection) is reported as “significant reduction; also recorded: reduce”.

B2: Galcanezumab (antibody, chains of the INN, looked up, V domains shown)
VH: QVQLVQSGAEVKKPGSSVKVSCKASGYTFGNYWMQWVRQAPGQGLEWMGAIYEGTGKTVYIQKFADRVTITADKSTSTAYMELSSLRSEDTAVYYCARLSDYVSGFGYWGQGTTVTVSS
VL: DIQMTQSPSSLSASVGDRVTITCRASKDISKYLNWYQQKPGKAPKLLIYYTSGYHSGVPSRFSGSGSGTDFTLTISSLQPEDFATYYCQQGDALPPTFGGGTKVEIK
notes: a second monoclonal antibody antagonist of CGRP
For B2, the lesion size ([1]; Galcanezumab 4 mg/kg subcutaneous injection, 29 to 56 dpi, vs vehicle) was “reduce” and the endometriosis-associated pain ([8]; Galcanezumab 4 mg/kg subcutaneous injection) was “significant reduction; also recorded: reduce”.
